Measured values reported in US20130217678A1, “PHARMACEUTICAL AGENT COMPRISING QUINOLONE COMPOUND” (OTSUKA PHARMACEUTICAL CO., LTD., priority 2008, published 2013).

What was measured:
[1] = tested on: human neuroblastoma cell lines SH-SY5Y treated with 1-methyl-4-phenylpyridinium (MPP+); assay: Improvement of mitochondrial function (Alamar Blue mitochondrial oxidation reduction activity) in MPP+-treated SH-SY5Y cells; format: cell-based; settings: 1.5 mM MPP+, relative to cells in DMSO alone = 100%, read-out: Fluorescence Intensity (%); for activity at 0.01 µg/mL: compound 0.01 μg/ml; for activity at 0.03 µg/mL: compound 0.03 μg/ml; for activity at 0.1 µg/mL: compound 0.1 μg/ml; for activity at 0.3 µg/mL: compound 0.3 μg/ml; for activity at 1 µg/mL: compound 1 μg/ml
Method: In human neuroblastoma cell lines SH-SY5Y in which mitochondrial function was damaged by MPP^+ treatment (Bollimuntha S. et al., J Biol Chem, 280, 2132-2140 (2005) and Shang T. et al., J Biol Chem, 280, 34644-34653 (2005)), the improvement of mitochondrial function was evaluated on the basis of the measurement value for mitochondrial oxidation reduction activity using Alamar Blue fluorescent dye after the compound addition (Nakai M. et al, Exp Neurol, 179, 103-110 (2003)).
The human neuroblastoma cell lines SH-SY5Y were cultured in Dulbecco's Modified Eagle's Medium containing 10% fetal bovine serum (DMEM containing 50 units/ml penicillin and 50 μg/ml streptomycin as antibiotics) at 37° C. in the presence of 5% carbon dioxide. Cells were scattered on a poly-D-lysine-coated 96-well black plate at a concentration of 3−6×10^4 cells/cm^2 (medium amount: 100 μl/well) and cultured in the medium for two days. Further, the medium was changed to DMEM containing a 1% N2 supplement (N2-DMEM) or to a medium (100 μl/well) in which 1.5 mM MPP^+ was dissolved. The cells were cultured therein for 39 to 48 hours, and then subjected to a mitochondrial oxidation reduction activity measurement system. A sample compound that had been previously dissolved in dimethyl sulfoxide (DMSO) was diluted with N2-DMEM and added in a volume of 10 μl/well 24 hours before the activity measurement (final compound concentration: 0.01 to 1 μg/ml).
After removal of the medium by suction, a balanced salt solution containing 10% Alamar Blue (154 mM sodium chloride, 5.6 mM potassium chloride, 2.3 mM calcium chloride, 1.0 mM magnesium chloride, 3.6 mM sodium hydrogen carbonate, 5 mM glucose, 5 mM HEPES, pH 7.2) was added in a volume of 100 μl/well, and reacted in an incubator at 37° C. for 1 hour. The fluorescent intensity was detected using a fluorescence detector (a product of Hamamatsu Photonics K.K., excitation wavelength: 530 nm, measurement wavelength: 580 nm) to thereby measure the mitochondrial oxidation reduction activity.
The fluorescent intensity of the well of the cells cultured in a medium containing MPP^+ and each of the sample compounds was relatively evaluated based on the 100% fluorescent intensity of the well of the cells cultured in a medium containing DMSO alone (final concentration: 0.1%).

CCn1cc(-c2ccc(OC)cc2)c(=O)c2ccc(OC)cc21 [Example 2, 1-Ethyl-7-methoxy-3-(4-methoxyphenyl)-1H-quinolin-4-one]
activity at 0.01 µg/mL [1]: 71% | activity at 0.03 µg/mL [1]: 73% | activity at 0.1 µg/mL [1]: 74% | activity at 0.3 µg/mL [1]: 77% | activity at 1 µg/mL [1]: 81% | melting point: 129 to 131 °C

CCCOc1cccc2c(=O)c(-c3ccc(OC)cc3)c[nH]c12 [Example 3, 3-(4-Methoxyphenyl)-8-propoxy-1H-quinolin-4-one]
activity at 0.01 µg/mL [1]: 68% | activity at 0.03 µg/mL [1]: 77% | activity at 0.1 µg/mL [1]: 77% | activity at 0.3 µg/mL [1]: 83% | activity at 1 µg/mL [1]: 67% | melting point: 231 to 233 °C

CCCOc1ccc(OC)c2c(=O)c(-c3ccc(OC)cc3)c[nH]c12 [Example 13, 5-Methoxy-3-(4-methoxyphenyl)-8-propoxy-1H-quinolin-4-one]
activity at 0.01 µg/mL [1]: 56% | activity at 0.03 µg/mL [1]: 65% | activity at 0.1 µg/mL [1]: 74% | activity at 0.3 µg/mL [1]: 69% | activity at 1 µg/mL [1]: 62% | melting point: 223 to 224 °C

COc1ccc(-c2c[nH]c3c(Oc4ccccc4)cccc3c2=O)cc1 [Example 18, 3-(4-Methoxyphenyl)-8-phenoxy-1H-quinolin-4-one]
activity at 0.01 µg/mL [1]: 29% | activity at 0.03 µg/mL [1]: 45% | activity at 0.1 µg/mL [1]: 44% | activity at 0.3 µg/mL [1]: 47% | activity at 1 µg/mL [1]: 30% | melting point: 250 to 251 °C

CCCOc1ccc(C)c2c(=O)c(-c3ccc(OC)cc3OC)c[nH]c12 [Example 20, 3-(2,4-Dimethoxyphenyl)-5-methyl-8-propoxy-1H-quinolin-4-one]
activity at 0.01 µg/mL [1]: 65% | activity at 0.03 µg/mL [1]: 67% | activity at 0.1 µg/mL [1]: 74% | activity at 0.3 µg/mL [1]: 78% | activity at 1 µg/mL [1]: 77% | melting point: 193 to 194 °C

CCCOc1ccc(OC)c2c(=O)c(-c3ccc(OC)cc3OC)c[nH]c12 [Example 21, 3-(2,4-Dimethoxyphenyl)-5-methoxy-8-propoxy-1H-quinolin-4-one]
activity at 0.01 µg/mL [1]: 65% | activity at 0.03 µg/mL [1]: 68% | activity at 0.1 µg/mL [1]: 77% | activity at 0.3 µg/mL [1]: 82% | activity at 1 µg/mL [1]: 84% | melting point: 113 to 114 °C

CCCOc1c(C)cc(C)c2c(=O)c(-c3ccc(OC)cc3)c[nH]c12 [Example 23, 3-(4-Methoxyphenyl)-5,7-dimethyl-8-propoxy-1H-quinolin-4-one]
activity at 0.01 µg/mL [1]: 51% | activity at 0.03 µg/mL [1]: 63% | activity at 0.1 µg/mL [1]: 67% | activity at 0.3 µg/mL [1]: 68% | activity at 1 µg/mL [1]: 59% | melting point: 174 to 175 °C

CCCOc1ccc(C(F)(F)F)c2c(=O)c(-c3ccc(OC)cc3)c[nH]c12 [Example 24, 3-(4-Methoxyphenyl)-8-propoxy-5-trifluoromethyl-1H-quinolin-4-one]
activity at 0.01 µg/mL [1]: 50% | activity at 0.03 µg/mL [1]: 57% | activity at 0.1 µg/mL [1]: 64% | activity at 0.3 µg/mL [1]: 63% | activity at 1 µg/mL [1]: 36% | melting point: 220 to 221 °C

CCCOc1cccc2c(=O)c(-c3ccccc3C(F)(F)F)c[nH]c12 [Example 32, 8-Propoxy-3-(2-trofluoromethylphenyl)-1H-quinolin-4-one]
activity at 0.01 µg/mL [1]: 49% | activity at 0.03 µg/mL [1]: 53% | activity at 0.1 µg/mL [1]: 54% | activity at 0.3 µg/mL [1]: 57% | activity at 1 µg/mL [1]: 61% | melting point: 224 °C

CCCOc1cc(F)cc2c(=O)c(-c3ccc(OC)cc3)c[nH]c12 [Example 34, 6-Fluoro-3-(4-methoxyphenyl)-8-propoxy-1H-quinolin-4-one]
activity at 0.01 µg/mL [1]: 47% | activity at 0.03 µg/mL [1]: 53% | activity at 0.1 µg/mL [1]: 53% | activity at 0.3 µg/mL [1]: 63% | activity at 1 µg/mL [1]: 53% | melting point: 153 to 154 °C

CCCOc1c(OC)cc(C)c2c(=O)c(-c3ccc(OC)cc3)c[nH]c12 [Example 37, 7-Methoxy-3-(4-methoxyphenyl)-5-methyl-8-propoxy-1H-quinolin-4-one]
activity at 0.01 µg/mL [1]: 47% | activity at 0.03 µg/mL [1]: 54% | activity at 0.1 µg/mL [1]: 55% | activity at 0.3 µg/mL [1]: 60% | activity at 1 µg/mL [1]: 59% | melting point: 195 to 196 °C
